Experimental data published in publication PMC8799869, “D-enantiomers of CATH-2 enhance the response of macrophages against Streptococcus suis serotype 2” (Journal of Advanced Research, 2021).
pKd: −log10 of the molar value. Values after ≈ are worked out from the molar mass of the structure shown. Where two headings read alike, the source gives them in different places. Where a SMILES comes first, the peptide text is derived from it. Where no end group is shown, it is not given here. [ ]: non-standard residue; d: D form.

Experiments:
[1] = tested on: S. suis serotype 2 strain D282; format: cell-based, Streptococcus suis; settings: 3 h
Method: (§1) S. suis serotype 2 strains P1/7, D282, S735, and OV625 were grown into mid-logarithmic phase for 3–4 h at 37 °C in THB, after which bacteria were centrifuged at 1200×g for 10 min at 4 °C and resuspended in fresh THB. Bacterial concentration was determined by measuring optical density at 620 nm with an OD of 1.0 being equivalent to 1x10^8 colony forming units (CFU)/mL. 1x10^6 CFU/mL S. suis was mixed with different concentrations of D-CATH-2 and derivatives (0.63 – 40 µM) and incubated for 3 h at 37 °C. Ten-fold dilutions were prepared and spread in Tryptic Soy agar (TSA) plates containing 5% (v/v) defibrinated sheep blood (Oxoid) and colonies were allowed to grow for 48 h. Minimal Bactericidal Concentration (MBC) was defined as ≤100 CFU/mL (2 log CFU/mL), the detection limit of the assay.

[2] = tested on: S. suis serotype 2 strain OV625; format: cell-based, Streptococcus suis; settings: 3 h
Method: as §1

[3] = tested on: S. suis serotype 2 strain P1/7; format: cell-based, Streptococcus suis; settings: 3 h
Method: as §1

[4] = tested on: S. suis serotype 2 strain S735; format: cell-based, Streptococcus suis; settings: 3 h
Method: as §1

[5] = Isothermal titration calorimetry (ITC), peptide binding to LTA; design: species or system S. aureus; settings: 200 µM peptide titrated into 37.2 µM LTA-SA, MilliQ:dPBS 3:1, 37 °C, three experiments averaged, independent model, read-out: Kd, dissociation coefficient
Method: The interaction between the D-CATH-2 peptides and LTA-SA was tested using isothermal titration calorimetry (ITC). All ITC experiments were performed on a Low Volume NanoITC (TA instruments - Waters LLC, New Castle, USA). Peptide solution or 37.2 µM LTA-SA was prepared in MilliQ:dPBS (Gibco) in a 3:1 ratio. The chamber was filled with 164 µL LTA-SA and the peptide was loaded in the 50 µL syringe. Every 300 s, 1.99 µL peptide was titrated into the chamber at 37 °C. Data was analyzed using the Nano Analyze software (TA instruments-Waters LLC). The data of three experiments was averaged and an independent model was used to determine the peptide-LTA interaction.

E. coli = settings: in ovo administration three days before hatch; cited from earlier work
Text: (§2) In this study injection of D-C(1–21) reduced disease severity and increased the survival rate, although the differ ...

murine BMDMs = test: BMDM differentiation after peptide exposure at day 1, flow cytometry; format: cell-based, mouse; settings: 1.25 µM peptide at day 1 of culture for 24 h
Method: Murine bone marrow cells, isolated from the femur and tibia of both hindlegs, were stored in fetal calf serum (FCS) (Corning, NY, USA) containing 10% DMSO (Sigma-Aldrich, MO, USA) in liquid nitrogen. Cells were grown at a concentration of 5x10^5 cells/mL in RPMI-1640 without phenol red (Thermo Fisher Scientific, MA, USA) supplemented with 10% FCS and 1% penicillin/streptomycin (Thermo Fisher Scientific). Bone marrow-derived macrophages (BMDM) and bone marrow-derived dendritic cells (BMDC) were cultured by adding 20 ng/mL murine recombinant M−CSF or GM-CSF (PeproTech, NJ, USA) respectively. Where indicated, cells were supplemented with 1.25 µM peptide at day 1, which was replaced by fresh medium at day 2. The medium of all cells was replaced by fresh medium without antibiotics at day 3. At day 6 cells were stimulated with 1 µg/mL LTA from S. aureus (LTA-SA) (Invivogen, CA, USA) or with the different S. suis strains at a multiplicity of infection (MOI) of 0.2. Medium containing S. suis was removed after 2 h and replaced by medium containing 200 µg/mL gentamycin (Sigma) and left for an additional 22 h. After 24 h, medium was collected and stored at −20 °C for cytokine measurements. […] Cells were stained with antibodies (Table 1) for 20 min, washed and measured using aBD FACSCanto-II (BD Biosciences, NJ, USA) and analyzed with FlowJo software (Ashland, OR, USA).

S. suis P1/7 = test: In vivo prophylactic S. suis P1/7 infection model; design: species or system mouse
Method: Upon arrival, mice were allowed to acclimatize for at least 7 days before the start of the experiment. The experiment was performed as depicted in Fig. 5A. The experiment was repeated twice to obtain in total 4 mice in the control groups and 12 mice in the infection groups. At day 1, mice were subcutaneously injected in the neck region with 1 mg/kg D-C(1–21) in PBS/cholesterol or with PBS/cholesterol alone. Cholesterol was added 5% v/v, 2 mg/ml in ethanol. The peptide and control groups were blinded to avoid any influence by the researchers. After 24 h (group 1) or after 7 days (group 2), mice were intraperitoneally infected with 10^7 CFU S. suis P1/7 in THB or with THB alone as control. 24 h after infection, a few drops of blood were collected via cheek puncture for bacterial count. During the infection phase of the experiment, mice were checked every 12 h in the acute phase of disease (first 48 h) and thereafter daily until the end of the study. A cumulative clinical score was given to the mice as measure of disease using several parameters as depicted in Table 4, according to Seitz et al.. When a mouse obtained a clinical score of 2 for a minimum of 3 out of 8 scoring points two days in a row, or in case of severe weight loss (>20%), the mouse was euthanized for animal welfare reasons (humane end point (HEP)) and the organs were collected for bacterial counts as described hereafter. Seven days post infection all mice were sacrificed for further analysis. Mice were anesthetized using isoflurane and 1 mL blood was drawn via heart puncture, followed by cervical dislocation. The peritoneum was flushed with 5 mL PBS/0.5 mM EDTA and diluted in 10 mL ice cold PBS/0.5% FCS. Spleen, lungs, liver, lymph nodes (axillary, inguinal, and mesenteric), brain, kidney and bone marrow were collected and stored in ice cold PBS. All organs, except the bone marrow and lymph nodes were weighed using a Sartorius microbalance. The peritoneal lavage (PTL) samples were counted using the Countess II Automated Cell Counter (Invitrogen, CA, USA). The lungs, liver, brain and kidney were meshed through a 40 µm filter (BD Biosciences) with 5 mL PBS to obtain single cell suspensions. Spleen and lymph nodes were digested with digestion buffer (1.5 WU/mL liberase TL grade, 100 Units/ml recombinant DNAse I, both Roche) for 30 min at 37 °C and meshed through a 40 µm filter using 5 mL PBS/0.5 mM EDTA. The red blood cells of the blood and spleen were lysed using an isotonic ammonium chloride buffer (155 mM NH4Cl, 10 mM KHCO3, 0.1 mM EDTA) for 5–10 min on ice, washed 1x with PBS and were resuspended in FACS buffer (PBS/0.5% BSA). Bone marrow samples were flushed out the femur and tibia of both legs with 5 mL PBS and filtered through a 40 µm filter. A sample of the blood, bone marrow, spleen, peritoneal lavage and lymph nodes was taken and stained for 30 min with different antibody panels (Table 1) and measured using the BD FACS Canto-II and analyzed with FlowJo V8. Of the lungs, liver, brain, kidney, spleen and peritoneal lavage samples, a 10-fold serial dilution was prepared and the samples were plated on TSA plates containing 5% (v/v) defibrinated sheep blood. The colonies were allowed to grow for 48 h at 37 °C. The number of colonies were counted, with ≤ 100 CFU/mL (2 log CFU/mL) as detection limit of the assay and calculated as CFU/mg organ.

[6] = previously shown; read-out: dissociation coefficient to LPS; cited from earlier work
Method: Inhibition of LPS-induced, and to a lesser extent LTA-induced activation, is a widely studied immunomodulatory aspect of cathelicidins. […] The dissociation coefficient to LTA is with 2–10 µM much higher than previously shown for L-CATH-2 to LPS with a dissociation coefficient of 0.08 µM, [32] indicating a stronger binding to LPS than to LTA. However, since D-CATH-2 was highly efficient at inhibiting LTA-induced activation, it might also be that the inh ...

[7] = intravenous administration; blood and peritoneum; cited from earlier work
Text: as §2

| Compound | MBC [1] [µM] | MBC [2] [µM] | MBC [3] [µM] | MBC [4] [µM] | pKd [5] | further results |
| --- | --- | --- | --- | --- | --- | --- |
| CC[C@@H](C)[C@@H](NC(=O)[C@@H](CCCCN)NC(=O)[C@@H](CCCNC(=N)N)NC(=O)[C@@H](CC(C)C)NC(=O)[C@@H](Cc1ccccc1)NC(=O)[C@@H](CCCNC(=N)N)NC(=O)CNC(=O)[C@@H](Cc1ccccc1)NC(=O)[C@H](N)CCCNC(=N)N)C(=O)N[C@H](CCCNC(=N)N)C(=O)N[C@H](CCCNC(=N)N)C(=O)N[C@H](Cc1ccccc1)C(=O)N[C@H](CCCNC(=N)N)C(=O)N1CCC[C@@H]1C(=O)N[C@H](CCCCN)C(=O)N[C@@H](C(=O)N[C@@H](C(=O)N[C@@H](C(=O)N[C@@H](C(=O)N[C@@H](C(=O)N[C@H](CCC(N)=O)C(=O)NCC(=O)N[C@H](CO)C(=O)N[C@H](C)C(=O)N[C@H](CCCNC(=N)N)C(=O)N[C@H](Cc1ccccc1)C(N)=O)[C@H](C)CC)[C@H](C)O)[C@H](C)CC)[C@H](C)O)C(C)C [D-CATH-2] (H-[dR][dF]G[dR][dF][dL][dR][dK][dI][dR][dR][dF][dR][dP][dK][dV][dT][dI][dT][dI][dQ]G[dS][dA][dR][dF]-NH2; N-terminus assumed) | 2.5 to 5 | 1.25 to 5 | 2.5 to 5 | 1.25 to 2.5 | 5.52 | protection of chickens against infection (E. coli): protects chickens up to 7 days post hatch |
| CC[C@@H](C)[C@@H](NC(=O)[C@@H](CCCCN)NC(=O)[C@@H](CCCNC(=N)N)NC(=O)[C@@H](CC(C)C)NC(=O)[C@@H](Cc1ccccc1)NC(=O)[C@@H](CCCNC(=N)N)NC(=O)CNC(=O)[C@@H](Cc1ccccc1)NC(=O)[C@H](N)CCCNC(=N)N)C(=O)N[C@H](CCCNC(=N)N)C(=O)N[C@H](CCCNC(=N)N)C(=O)N[C@H](Cc1ccccc1)C(=O)N[C@H](CCCNC(=N)N)C(=O)N1CCC[C@@H]1C(=O)N[C@H](CCCCN)C(=O)N[C@@H](C(=O)N[C@@H](C(=O)N[C@@H](C(=O)N[C@@H](C(=O)N[C@@H](C(=O)N[C@H](CCC(N)=O)C(N)=O)[C@H](C)CC)[C@H](C)O)[C@H](C)CC)[C@H](C)O)C(C)C [D-C(1–21)] (H-[dR][dF]G[dR][dF][dL][dR][dK][dI][dR][dR][dF][dR][dP][dK][dV][dT][dI][dT][dI][dQ]-NH2; N-terminus and C-terminus assumed) | 2.5 to 5 | 0.6 to 5 | 2.5 (≈ 6.72 µg/mL) | 2.5 (≈ 6.72 µg/mL) | 4.99 | BMDM differentiation efficiency, percentage of cells expressing F4/80 at day 6 (murine BMDMs): most pronounced; cumulative clinical score (S. suis P1/7; 1 mg/kg s.c., infected 24 h post peptide injection, late stage of disease): small reduction of cumulative clinical score; cumulative clinical score (S. suis P1/7; 1 mg/kg s.c., infected 7 days post peptide injection, acute phase of disease): reduction in cumulative clinical score; survival (S. suis P1/7; 1 mg/kg s.c., infected either 24 h or 7 days post peptide injection): higher chance of survival; bodyweight loss up to 48 h post infection (S. suis P1/7; 1 mg/kg s.c., infected i.p. with 10^7 CFU 24 h or 7 d post peptide injection, same in control mice): approximately 8%; bacteria in the blood 7 days post infection (S. suis P1/7; 24 h D-C(1–21) treated mice): no mice had bacteria left in the bloodstream; number of S. suis positive organs per mouse (S. suis P1/7; 24 h D-C(1–21) treated mice versus untreated, not statistically significant): generally less S. suis positive organs; total CFU counts in organs (S. suis P1/7; 24 h D-C(1–21) treated mice versus untreated, not statistically significant, not found for 7 day treated mice): lower total CFU counts; S. suis bacteria in the bloodstream 24 h post infection (S. suis P1/7; all mice, treated or not): 10^5-10^6 CFU/mL; bacterial counts in organs of mice reaching the HEP (S. suis P1/7; treated mice reaching HEP before the end of the study, especially in the brain): less bacterial counts |
| CC[C@@H](C)[C@@H](NC(=O)[C@@H](CCCCN)NC(=O)[C@@H](CCCNC(=N)N)NC(=O)[C@@H](CC(C)C)NC(=O)[C@@H](Cc1ccccc1)NC(=O)[C@H](N)CCCNC(=N)N)C(=O)N[C@H](CCCNC(=N)N)C(=O)N[C@H](CCCNC(=N)N)C(=O)N[C@H](Cc1ccccc1)C(=O)N[C@H](CCCNC(=N)N)C(=O)N1CCC[C@@H]1C(=O)N[C@H](CCCCN)C(=O)N[C@@H](C(=O)N[C@@H](C(=O)N[C@@H](C(=O)N[C@@H](C(=O)N[C@@H](C(=O)N[C@H](CCC(N)=O)C(N)=O)[C@H](C)CC)[C@H](C)O)[C@H](C)CC)[C@H](C)O)C(C)C [D-C(4–21)] (H-[dR][dF][dL][dR][dK][dI][dR][dR][dF][dR][dP][dK][dV][dT][dI][dT][dI][dQ]-NH2; N-terminus and C-terminus assumed) | 2.5 to 5 | 1.25 to 2.5 | 5 to 10 | 2.5 (≈ 5.82 µg/mL) | 5.67 | – |
| L-CATH-2: natural chicken cathelicidin-2 (RFGRFLRKIRRFRPKVTITIQGSARF-NH2) | – | – | – | – | – | pKd [6]: 7.10 |
| LL-37 | – | – | – | – | – | survival and bacterial load in septic mice [7]: improved the survival and reduced the bacterial load |
